The target of this assay is CaKip1p (Candida albicans, UniProt A0A1D8PT88). The settings on record: read-out: Value.

Take `Nc1ncnc2c1ncn2[C@@H]1O[C@H](COP(=O)(O)OP(=O)(O)OP(=O)(O)O)[C@@H](O)[C@H]1O` [ATP]: the Km amounted to 7.4 ± 0.7 µM.

(Values after article PMC1976386 (Molecular Microbiology, 2007).)
